Measurements as given in US20100189797A1, “ORAL ANTIDEPRESSANT FORMULATION” (priority 2002, published 2010).

Legend:
stressed rats = assay: Tests made on rats: activity level of stressed rats; type: in vivo; details: 5 mg fluoxetine per kg and/or 50 mg ASA per kg, unstressed control 30, stressed 2
Method: Four groups of rats have been stressed. One group of rats remain unstressed so as to serve as control.
After being stressed, the rats of the first group received a dose of 50 mg ASA per kg. The second group of rats received no treatment. The third group of rats received 5 mg fluoxetine per kg, and the fourth group of rats received simultaneously 5 mg fluoxetine+50 mg ASA per kg.
The treatment was continued during 3 weeks.
In said test, the doses of ASA and fluoxetine have been adapted for rats.

volunteers = assay: Informal tests on volunteers: oral ASA dose with oral antidepressant; type: in vivo, human; details: oral ASA less than 50 mg with an antidepressant
Method: From said tests and informal tests made on volunteers, in which after (just after, less than 5 minutes after) and prior oral administration of an antidepressant, a dose of ASA was orally administered, it appears that the oral dose of ASA had to be lowered to less than 50 mg, especially between 5 and 50 mg.
From this test, it seems that the antidepressant action could already be achieved in less than 7 days, and even in less than 3 to 4 days, although when not using low dose of ASA, the antidepressant action is for example of at least 4 weeks for SSRI.

SSRI responding human = assay: Higher dose of ASA administered to SSRI responding human; type: in vivo; details: ASA dose of 100 mg

SMILES	activity after 1 week of treatment (stressed rats)	activity after three weeks of treatment (stressed rats)	bleeding (volunteers)	influence on the time of onset of antidepressant action (SSRI responding human)
CNCCC(Oc1ccc(C(F)(F)F)cc1)c1ccccc1 (racemic) [fluoxetine, (±)-N-methyl-3-phenyl-3-[(α-α-α-trifluoro-p-tolyl)oxy] propylamine]	no increase at all of the activity	about 25	–	–
CC(=O)Oc1ccccc1C(=O)O [ASA, acetyl salicylic acid]	no increase at all of the activity	no improvement of activity	no bleeding was observed	no influence or even to have a negative influence
